In ChEMBL document CHEMBL1152778, “Design, synthesis, and biological evaluation of (2R,alphaS)-3,4-dihydro-2-[3-(1,1,2,2-tetrafluoroethoxy)phenyl]-5-[3-(trifluoromethoxy)-phenyl]-alpha-(trifluoromethyl)-1(2H)-quinolineethanol as potent and orally active cholesteryl ester transfer protein inhibitor” (J Med Chem, 2009):
Activity calls are given as the source filed them. The rule behind the calls is not given here.

Columns and labels:
[1] = target: T1, Cholesteryl ester transfer protein (Homo sapiens, UniProt P11597); assay: Inhibition of CETP-mediated transfer of [3H]cholesteryl ester from HDL donar particles to LDL acceptor particles
T1 sequence (P11597 whole entry): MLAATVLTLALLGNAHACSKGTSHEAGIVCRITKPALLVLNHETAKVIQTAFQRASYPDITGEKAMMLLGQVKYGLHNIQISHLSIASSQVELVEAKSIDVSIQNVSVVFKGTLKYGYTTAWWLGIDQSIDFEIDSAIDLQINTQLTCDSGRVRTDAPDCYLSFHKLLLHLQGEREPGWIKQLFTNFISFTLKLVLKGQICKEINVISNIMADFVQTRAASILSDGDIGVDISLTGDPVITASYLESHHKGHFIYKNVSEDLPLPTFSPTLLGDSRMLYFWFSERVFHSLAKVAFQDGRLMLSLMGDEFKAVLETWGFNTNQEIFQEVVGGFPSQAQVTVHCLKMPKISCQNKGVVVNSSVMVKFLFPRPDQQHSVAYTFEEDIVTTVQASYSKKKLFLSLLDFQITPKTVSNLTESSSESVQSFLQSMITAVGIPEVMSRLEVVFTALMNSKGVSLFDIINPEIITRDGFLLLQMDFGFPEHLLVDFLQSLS

[2] = target: Phospholipid transfer protein (Homo sapiens) (UniProt P55058); assay: Inhibition of PLTP activity assessed as phosphatidylcholine transferred from [3H]phosphatidylcholine (dipalmitoyl)-labeled liposomes to HDL by cell based liquid scintillation counter
Chain of Phospholipid transfer protein (Homo sapiens) (P55058 whole entry): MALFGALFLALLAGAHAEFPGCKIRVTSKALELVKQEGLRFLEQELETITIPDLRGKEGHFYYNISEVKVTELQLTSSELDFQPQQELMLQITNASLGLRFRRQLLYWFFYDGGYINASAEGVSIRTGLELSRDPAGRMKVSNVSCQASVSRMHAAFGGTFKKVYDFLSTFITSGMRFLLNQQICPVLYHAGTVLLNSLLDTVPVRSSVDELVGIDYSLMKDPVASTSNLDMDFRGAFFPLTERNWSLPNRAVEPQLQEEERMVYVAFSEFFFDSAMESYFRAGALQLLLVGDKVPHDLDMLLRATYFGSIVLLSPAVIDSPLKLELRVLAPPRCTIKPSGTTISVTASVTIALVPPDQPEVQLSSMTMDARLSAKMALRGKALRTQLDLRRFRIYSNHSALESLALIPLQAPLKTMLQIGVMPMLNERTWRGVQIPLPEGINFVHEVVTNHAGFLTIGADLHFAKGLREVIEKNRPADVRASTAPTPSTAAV

[3] = target: T2, Phosphatidylcholine-sterol acyltransferase (Homo sapiens) (UniProt P04180); assay: Inhibition of LCAT activity in human plasma assessed as change in cholesteryl ester/free cholesterol ratio by cell based assay
T2 sequence (whole entry): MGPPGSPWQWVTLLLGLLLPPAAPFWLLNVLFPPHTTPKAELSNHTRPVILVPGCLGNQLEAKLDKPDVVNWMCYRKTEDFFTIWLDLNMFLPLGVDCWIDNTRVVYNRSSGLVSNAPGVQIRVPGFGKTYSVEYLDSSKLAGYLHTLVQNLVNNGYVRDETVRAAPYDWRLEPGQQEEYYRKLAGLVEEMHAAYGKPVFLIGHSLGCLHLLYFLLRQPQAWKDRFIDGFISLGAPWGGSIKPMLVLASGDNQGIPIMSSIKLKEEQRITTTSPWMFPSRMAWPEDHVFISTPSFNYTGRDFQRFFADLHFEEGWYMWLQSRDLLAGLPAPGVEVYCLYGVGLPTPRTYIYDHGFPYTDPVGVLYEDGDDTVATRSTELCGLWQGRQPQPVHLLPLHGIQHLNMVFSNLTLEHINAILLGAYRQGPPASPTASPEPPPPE

[4] = target: T3, Hepatic triacylglycerol lipase (Homo sapiens) (UniProt P11150); assay: Inhibition of hepatic lipase activity assessed as release of free fatty acid from hydrolysis of VLDL by cell based assay
T3 sequence (whole entry): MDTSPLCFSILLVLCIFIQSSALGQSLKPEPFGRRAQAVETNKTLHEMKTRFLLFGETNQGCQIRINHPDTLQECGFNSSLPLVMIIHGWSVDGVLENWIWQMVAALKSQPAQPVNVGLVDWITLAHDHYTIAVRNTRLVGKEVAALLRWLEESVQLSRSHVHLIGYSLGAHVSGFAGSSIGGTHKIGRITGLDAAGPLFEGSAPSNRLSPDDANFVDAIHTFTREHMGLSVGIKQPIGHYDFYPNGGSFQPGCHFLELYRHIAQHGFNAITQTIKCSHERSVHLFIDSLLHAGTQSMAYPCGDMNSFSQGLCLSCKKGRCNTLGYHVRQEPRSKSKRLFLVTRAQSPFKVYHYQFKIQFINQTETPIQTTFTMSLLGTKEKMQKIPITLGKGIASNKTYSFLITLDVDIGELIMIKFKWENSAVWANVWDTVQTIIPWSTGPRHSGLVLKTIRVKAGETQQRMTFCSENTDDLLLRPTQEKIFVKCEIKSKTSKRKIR

[5] = target: T4, Lipoprotein lipase (Homo sapiens) (UniProt P06858); assay: Inhibition of lipoprotein lipase activity assessed as release of free fatty acid from hydrolysis of VLDL by cell based assay
T4 sequence (whole entry): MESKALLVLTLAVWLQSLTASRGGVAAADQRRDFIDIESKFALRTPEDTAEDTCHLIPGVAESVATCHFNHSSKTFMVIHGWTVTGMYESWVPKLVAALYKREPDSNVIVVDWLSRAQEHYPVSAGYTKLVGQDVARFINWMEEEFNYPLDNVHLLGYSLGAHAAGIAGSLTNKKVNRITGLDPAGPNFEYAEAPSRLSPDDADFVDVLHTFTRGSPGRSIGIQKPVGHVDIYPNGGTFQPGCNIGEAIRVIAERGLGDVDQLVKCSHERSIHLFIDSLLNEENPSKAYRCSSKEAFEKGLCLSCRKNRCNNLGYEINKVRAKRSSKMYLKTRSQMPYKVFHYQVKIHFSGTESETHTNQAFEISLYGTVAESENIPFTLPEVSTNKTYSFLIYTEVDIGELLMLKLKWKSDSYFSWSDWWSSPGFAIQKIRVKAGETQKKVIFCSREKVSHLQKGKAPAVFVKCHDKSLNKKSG

[6] = target: T5, Microsomal triglyceride transfer protein large subunit (Homo sapiens) (UniProt P55157); assay: Inhibition of microsomal triglyceride transfer protein by cell based assay
T5 sequence (whole entry): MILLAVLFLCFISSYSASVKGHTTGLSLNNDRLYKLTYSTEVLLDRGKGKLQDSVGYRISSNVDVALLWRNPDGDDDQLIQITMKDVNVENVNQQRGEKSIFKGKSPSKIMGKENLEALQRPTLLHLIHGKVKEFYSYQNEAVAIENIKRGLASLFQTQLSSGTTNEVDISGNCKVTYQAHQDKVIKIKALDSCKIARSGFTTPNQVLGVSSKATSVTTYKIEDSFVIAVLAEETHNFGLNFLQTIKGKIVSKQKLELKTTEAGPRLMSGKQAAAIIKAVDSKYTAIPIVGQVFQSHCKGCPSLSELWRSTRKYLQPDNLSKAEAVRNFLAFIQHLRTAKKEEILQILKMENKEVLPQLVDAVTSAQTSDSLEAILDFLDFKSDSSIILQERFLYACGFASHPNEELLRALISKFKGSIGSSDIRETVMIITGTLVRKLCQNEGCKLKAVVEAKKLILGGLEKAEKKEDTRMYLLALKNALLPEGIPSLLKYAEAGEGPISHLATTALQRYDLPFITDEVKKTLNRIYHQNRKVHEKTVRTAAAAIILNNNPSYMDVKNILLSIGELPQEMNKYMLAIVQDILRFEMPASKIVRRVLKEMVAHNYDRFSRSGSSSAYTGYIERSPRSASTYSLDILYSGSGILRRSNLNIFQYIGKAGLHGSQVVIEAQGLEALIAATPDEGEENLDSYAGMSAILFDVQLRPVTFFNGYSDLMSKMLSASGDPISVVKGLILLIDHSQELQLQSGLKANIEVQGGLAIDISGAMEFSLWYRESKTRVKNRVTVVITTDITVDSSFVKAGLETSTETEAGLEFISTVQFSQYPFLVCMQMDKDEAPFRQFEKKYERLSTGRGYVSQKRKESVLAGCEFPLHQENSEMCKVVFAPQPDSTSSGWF

[7] = target: T6, Endothelial lipase (Homo sapiens) (UniProt Q9Y5X9); assay: Inhibition of endothelial lipase by cell based assay
T6 sequence (whole entry): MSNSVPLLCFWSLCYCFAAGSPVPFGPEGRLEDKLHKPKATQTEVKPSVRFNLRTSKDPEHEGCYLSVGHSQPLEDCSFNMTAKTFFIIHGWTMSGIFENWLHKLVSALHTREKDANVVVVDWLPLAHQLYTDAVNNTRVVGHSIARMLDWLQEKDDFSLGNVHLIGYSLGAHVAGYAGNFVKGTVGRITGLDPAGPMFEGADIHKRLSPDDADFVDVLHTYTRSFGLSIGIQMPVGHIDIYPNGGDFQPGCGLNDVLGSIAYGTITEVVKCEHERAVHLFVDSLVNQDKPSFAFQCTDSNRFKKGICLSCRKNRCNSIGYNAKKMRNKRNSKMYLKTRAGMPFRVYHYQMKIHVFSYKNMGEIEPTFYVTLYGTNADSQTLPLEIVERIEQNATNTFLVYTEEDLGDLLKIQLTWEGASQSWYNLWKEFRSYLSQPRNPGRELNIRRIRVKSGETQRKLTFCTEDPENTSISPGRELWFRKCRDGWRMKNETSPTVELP

[8] = system: Hamster; assay: Increase in HDLC level in high-fat fed hamster model at 30 mg/kg, po for 5 days measured after 2 hrs of last dose; type: functional, Cricetinae
[9] = system: Mus musculus; assay: Increase in HDLC level in normal chow diet-fed human CETP transgenic mouse model at 30 mg/kg, po for 5 days measured after 2 hrs of last dose; type: functional
[10] = system: Cynomolgus monkey; assay: Increase in HDLC level in normal chow diet-fed cynomolgus monkey at 3 mg/kg, po for 5 days measured after 10 hrs of last dose; type: functional, Macaca fascicularis
[11] = system: Cynomolgus monkey; assay: Increase in HDLC level in normal chow diet-fed cynomolgus monkey at 10 mg/kg, po for 5 days measured after 10 hrs of last dose; type: functional, Macaca fascicularis
[12] = system: Cynomolgus monkey; assay: Increase in HDLC level in normal chow diet-fed cynomolgus monkey at 30 mg/kg, po for 5 days measured after 10 hrs of last dose; type: functional, Macaca fascicularis
[13] = system: Cynomolgus monkey; assay: Ex vivo inhibition of CETP in normal chow diet-fed cynomolgus monkey at 3 mg/kg, po for 5 days by Roar assay; type: functional; conditions: Macaca fascicularis, 120 h
[14] = system: Cynomolgus monkey; assay: Ex vivo inhibition of CETP in normal chow diet-fed cynomolgus monkey at 10 mg/kg, po for 5 days by Roar assay; type: functional; conditions: Macaca fascicularis, 120 h
[15] = system: Cynomolgus monkey; assay: Ex vivo inhibition of CETP in normal chow diet-fed cynomolgus monkey at 30 mg/kg, po for 5 days by Roar assay; type: functional; conditions: Macaca fascicularis, 120 h
[16] = Plasma concentration in normal chow diet-fed cynomolgus monkey at 3 mg/kg, po for 5 days; type: ADME, organism-based, Macaca fascicularis; set-up: dose 3 mg/kg, route oral
[17] = Plasma concentration in normal chow diet-fed cynomolgus monkey at 10 mg/kg, po for 5 days; type: ADME, organism-based, Macaca fascicularis; set-up: dose 10 mg/kg, route oral
[18] = Plasma concentration in normal chow diet-fed cynomolgus monkey at 30 mg/kg, po for 5 days; type: ADME, organism-based, Macaca fascicularis; set-up: dose 30 mg/kg, route oral

IC50 [1] [µM]	Activity [2]	Activity [3]	Activity [4]	Activity [5]	Activity [6]	Activity [7]	concentration at 120 h [16] [nM]	concentration at 120 h [17] [nM]	concentration at 120 h [18] [nM]	Structure (SMILES)	Activity [8] [%]	Activity [9] [%]	Activity [10] [%]	Activity [11] [%]	Activity [12] [%]	inhibition in vivo at 3 mg/kg [13] [%]	inhibition in vivo at 10 mg/kg [14] [%]	inhibition in vivo at 30 mg/kg [15] [%]
0.045										OC(CN1c2cccc(-c3cccc(OC(F)(F)F)c3)c2CCC1c1cccc(OC(F)(F)C(F)F)c1)C(F)(F)F (racemic)								
	inactive	inactive	inactive	inactive	inactive	inactive	300	1300	2900	CCOC(=O)N1c2ccc(C(F)(F)F)cc2[C@@H](N(Cc2cc(C(F)(F)F)cc(C(F)(F)F)c2)C(=O)OC)C[C@H]1CC [TORCETRAPIB]	44	28	24	41	44	35	66	85
